For 56 compounds, flash point results are on record in a flash point compilation (Sun et al. 2020).

In turn, `CC(=O)OCCC[Si](C)(Cl)Cl` [3-ACETOXYPROPYLMETHYLDICHLOROSILANE] gave a flash point of 85.00 °C.
`CO[Si](CCCOC(C)=O)(OC)OC` [3-ACETOXYPROPYLTRIMETHOXYSILANE] displayed a flash point of 93.00 °C.
Same read-out and setting: to `CCO[Si](C)(C)CCCN` [3-AMINOPROPYLDIMETHYLETHOXYSILANE] belongs 73.00 °C; to `CCO[Si](CCCCN)(OCC)OCC` [4-AMINOBUTYLTRIETHOXYSILANE], 109.00 °C.
On the same count and under the same terms, as for `CCO[Si](CCCCCCS(=O)(=O)N=[N+]=[N-])(OCC)OCC` [6-AZIDOSULFONYLHEXYLTRIETHOXYSILANE], the figure is 114.00 °C.
The same measure, in the same setting: as for `CC(=O)OCC[Si](Cl)(Cl)Cl` [ACETOXYETHYLTRICHLOROSILANE], the figure is 82.00 °C; as for `CC(=O)OC[Si](C)(C)C` [ACETOXYMETHYLTRIMETHYLSILANE], 20.00 °C; as for `C=CC(=O)O[Si](C)(C)C` [ACRYLOXYTRIMETHYLSILANE], 26.00 °C.
`C=CC[Si](C)(C)N(C(C)C)C(C)C` [ALLYLDIMETHYL(DIISOPROPYLAMINO)SILANE]: the flash point was 62.00 °C.
For `C=CC[SiH](C)C` [ALLYLDIMETHYLSILANE], the flash point is -20.00 °C.
Same read-out and setting: as for `C=CC[Si](O[Si](C)(C)C)(O[Si](C)(C)C)O[Si](C)(C)C` [ALLYLTRIS(TRIMETHYLSILOXY)SILANE], the figure is 67.00 °C; as for `C[Si](C)(C)CN` [AMINOMETHYLTRIMETHYLSILANE], 9.00 °C; as for `C[SiH](C)Cc1ccccc1` [BENZYLDIMETHYLSILANE], 65.00 °C.
Same read-out and setting: as for `CO[Si](C)(CCCNCCN)OC` [N-(2-AMINOETHYL)-3-AMINOPROPYLMETHYLDIMETHOXYSILANE], the figure is 90.00 °C.
Same read-out and setting: to `C[Si](C)(C)CNCc1ccccc1` [N-BENZYLAMINOMETHYLTRIMETHYLSILANE] belongs 116.00 °C; to `CO[Si](OC)(OC)c1ccc(N)cc1` [p-AMINOPHENYLTRIMETHOXYSILANE], 180.00 °C.

This is another data set of the same source.
In turn, `C=C[CH2][Ge]([Cl])([Cl])[Cl]` [ALLYLTRICHLOROGERMANE] had a flash point of 55.00 °C.
On the same count and under the same terms, to `C=C[CH2][Ge]([CH2]C)([CH2]C)[CH2]C` [ALLYLTRIETHYLGERMANE] belongs 48.00 °C; to `[CH3][Ge]([CH3])([CH3])[CH](Cl)Cl` [DICHLOROMETHYLTRIMETHYLGERMANE], 33.00 °C.
The same measure, in the same setting: to `C[CH2][Ge]([Cl])([Cl])[CH2]C` [DIETHYLDICHLOROGERMANE] belongs 52.00 °C; to `C[N](C)[Ge]([CH3])([CH3])[CH3]` [DIMETHYLAMINOTRIMETHYLGERMANE], -10.00 °C.
On the same count and under the same terms, to `CC[O][Ge]([CH3])([O]CC)[O]CC` [METHYLTRIETHOXYGERMANE] belongs 40.00 °C; to `CCC[CH2][Ge]([CH2]CCC)([CH2]CCC)[CH2]CCC` [TETRA-n-BUTYLGERMANE], 90.00 °C.
`C=C[CH2][Ge]([CH2]C=C)([CH2]C=C)[CH2]C=C` [TETRAALLYLGERMANE] had a flash point of 70.00 °C.
`CC[O][Ge]([O]CC)([O]CC)[O]CC` [TETRAETHOXYGERMANE]: the flash point came out at 62.00 °C.
On the same count and under the same terms, as for `CC(C)[O][Ge]([O]C(C)C)([O]C(C)C)[O]C(C)C` [TETRAISOPROPOXYGERMANE], the figure is 68.00 °C.
Still for that read-out and setting: to `[CH3][Ge]([CH3])([CH3])[CH3]` [TETRAMETHYLGERMANE] belongs -19.00 °C.
`CCC[CH2][Ge]([Cl])([CH2]CCC)[CH2]CCC` [TRI-n-BUTYLCHLOROGERMANE]: the flash point amounted to 94.00 °C.
The same measure, in the same setting: as for `CCC[CH2][GeH]([CH2]CCC)[CH2]CCC` [TRI-n-BUTYLGERMANE], the figure is 78.00 °C; as for `[Cl][GeH]([Cl])[Cl]` [TRICHLOROGERMANE], 12.00 °C; as for `C[CH2][Ge]([Cl])([CH2]C)[CH2]C` [TRIETHYLCHLOROGERMANE], 38.00 °C.
Same read-out and setting: to `C[CH2][GeH]([CH2]C)[CH2]C` [TRIETHYLGERMANE] belongs 5.00 °C; to `C[CH](C)[Ge]([Cl])([CH](C)C)[CH](C)C` [TRIISOPROPYLCHLOROGERMANE], 66.00 °C; to `[CH3][Ge]([CH3])([CH3])[Cl]` [TRIMETHYLCHLOROGERMANE], 1.00 °C.
Still for that read-out and setting: to `CCC[CH2][Ge]([Cl])([Cl])[Cl]` [n-BUTYLTRICHLOROGERMANE] belongs 82.00 °C.

This is another data set of the same source.
`C[N](C)[Sn]([CH3])([CH3])[CH3]` [DIMETHYLAMINOTRIMETHYLTIN] returned a flash point of 1.00 °C.
Compound `CCCCCCCCCCC[CH2][Sn]([CH2]CCCCCCC)([CH2]CCCCCCC)[CH2]CCCCCCCCCCC` [DIOCTYLDILAURYLTIN] displayed a flash point of 198.00 °C.
Same read-out and setting: to `C#[C][Sn]([CH2]CCC)([CH2]CCC)[CH2]CCC` [ETHYNYLTRI-n-BUTYLTIN] belongs 73.00 °C; to `CCC[CH2][Sn]([CH2]CCC)([CH2]CCC)[c]1ccccc1` [PHENYLTRI-n-BUTYLTIN], 107.00 °C; to `CCC[CH2][Sn]([CH2]CCC)([CH2]CCC)[CH2]CCC` [TETRA-n-BUTYLTIN], 107.00 °C.
The same measure, in the same setting: to `CCCCCCC[CH2][Sn]([CH2]CCCCCCC)([CH2]CCCCCCC)[CH2]CCCCCCC` [TETRA-n-OCTYLTIN] belongs 94.00 °C; to `[CH3][Sn]([CH3])([CH3])[CH3]` [TETRAMETHYLTIN], -12.00 °C.
`c1cc[c]([Sn]([c]2ccccc2)([c]2ccccc2)[c]2ccccc2)cc1` [TETRAPHENYLTIN] registered a flash point of 231.00 °C.
`CCC[CH2][Sn]([Cl])([CH2]CCC)[CH2]CCC` [TRI-n-BUTYLCHLOROTIN] came in with a flash point of 120.00 °C.
Same read-out and setting: to `CCC[CH2][Sn]([CH2]CCC)([CH2]CCC)[O]CC` [TRI-n-BUTYLETHOXYTIN] belongs 104.00 °C; to `CCC[CH2][Sn]([I])([CH2]CCC)[CH2]CCC` [TRI-n-BUTYLIODOTIN], 113.00 °C; to `CCC[CH2][SnH]([CH2]CCC)[CH2]CCC` [TRI-n-BUTYLTIN HYDRIDE], 40.00 °C.
Turning to `C1CC[CH]([SnH]([CH]2CCCCC2)[CH]2CCCCC2)CC1` [TRICYCLOHEXYLTIN HYDRIDE], the flash point was found to be 105.00 °C.
On the same count and under the same terms, as for `[CH3][Sn]([CH3])([CH3])[Cl]` [TRIMETHYLCHLOROTIN], the figure is 97.00 °C; as for `CCC[CH2][Sn]([CH2]CCC)([CH2]CCC)[C](C)(C)C` [t-BUTYLTRI n-BUTYLTIN], 102.00 °C.

This is another data set of the same source.
Turning to `CO[Si](CCCNCCN)(OC)OC` [Aminoethylaminopropyltrimethoxysilane], the flash point is 96 °C.
Still for that read-out and setting: to `C[Si](C)(C)N=C=N[Si](C)(C)C` [Bis(trimethylsilyl)carbodiimide] belongs 42 °C.
Same read-out and setting: as for `CN(C(=O)C(F)(F)F)[Si](C)(C)C` [N-Methyl-N-trimethylsilyltrifluoroacetamide], the figure is 25 °C; as for `CC[Si](CC)(CC)CC` [Tetraethylsilane], 26 °C; as for `C[Si](C)(C)OB(O[Si](C)(C)C)O[Si](C)(C)C` [Tris(trimethylsiloxy)boron], 42 °C.
Same read-out and setting: to `C=C[Si](C)(C)O[Si](C)(C)C` [Vinylpentamethyldisiloxane] belongs 12 °C.

This is another data set of the same source.
On to `CC[Si](CC)(CC)CC` [Tetraethylsilane], for which the flash point is 32.00 °C.
